The text below walks through data of US10820591B2, “Substituted sulfonyl amides for controlling animal pests” (Bayer Aktiengesellschaft, priority 2016, dated 2020).

The assay deals with Meloidogyne incognita. Description: Meloidogyne incognita test (sand, lettuce, gall formation). It counts as in vivo. The note with it: Meloidogyne incognita, 336 h, 20 ppm, after 14 days; read-out: nematicidal efficacy (formation of galls). Summed up:
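Vessels held sand, diluted compound solution, M. incognita egg/larvae suspension and lettuce seeds, and the plants grew for 14 days. Efficacy in % came from root gall formation: 100% means no galls, 0% means galls equal to the untreated control.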
Regarding `O=C(NS(=O)(=O)c1ccccc1)c1cn(-c2cc(Cl)cc(C(F)(F)F)c2)cn1` [I-272], the pest or weed control at 20 ppm is 90%.
For `O=C(NS(=O)(=O)c1ccccc1)c1cn(-c2cc(Br)cc(Br)c2)cn1` [I-273] the value was 90%.
For `Cc1nc(C(=O)NS(=O)(=O)c2c(Cl)cccc2Cl)cn1-c1cccc(C(F)(F)F)c1` [I-274] the value was 90%; for `COc1ccc(Cl)c(S(=O)(=O)NC(=O)c2cn(-c3cccc(C(F)(F)F)c3)c(C)n2)c1` [I-275], 100%.
Take `O=C(NS(=O)(=O)c1ccccc1)c1cn(-c2cc(Br)cc(C(F)(F)F)c2)cn1` [I-276]: the pest or weed control at 20 ppm was found to be 70%.
For `O=C(NS(=O)(=O)c1ccccc1Cl)c1cn(-c2cc(Br)cc(C(F)(F)F)c2)cn1` [I-277] the value was 70%; for `O=C(NS(=O)(=O)c1ccccc1Cl)c1cn(-c2cc(Cl)cc(C(F)(F)F)c2)cn1` [I-278], 90%.
For `COc1ccc(Cl)c(S(=O)(=O)NC(=O)c2cn(-c3cc(Br)cc(C(F)(F)F)c3)cn2)c1` [I-279] the value was 90%; for `COc1ccc(Cl)c(S(=O)(=O)NC(=O)c2cn(-c3cc(Cl)cc(C(F)(F)F)c3)cn2)c1` [I-280], 90%; for `COc1ccc(Cl)c(S(=O)(=O)NC(=O)c2cn(-c3cc(C)cc(C(F)(F)F)c3)cn2)c1` [I-281], 90%.
For the molecule `COc1ccc(Cl)c(S(=O)(=O)NC(=O)c2cn(-c3cc(Br)cc(Br)c3)cn2)c1` [I-282], the pest or weed control at 20 ppm was found to be 90%.
On to `Cc1cc(C)cc(-n2cnc(C(=O)NS(=O)(=O)c3ccccc3Cl)c2)c1` [I-283], for which the pest or weed control at 20 ppm worked out at 90%.
Consider `O=C(NS(=O)(=O)c1ccccc1Cl)c1cn(-c2cc(C(F)(F)F)cc(C(F)(F)F)c2)cn1` [I-285], for which the pest or weed control at 20 ppm was 90%.
In the case of `COc1ccc(Cl)c(S(=O)(=O)NC(=O)c2cn(-c3cc(F)cc(F)c3)cn2)c1` [I-287] it was 100%.
Consider `COc1ccc(Cl)c(S(=O)(=O)NC(=O)c2cn(-c3cc(C)cc(C)c3)cn2)c1` [I-288], for which the pest or weed control at 20 ppm stood at 100%.
In the case of `O=C(NS(=O)(=O)c1ccccc1Cl)c1cn(-c2cc(Br)cc(Br)c2)cn1` [I-289] it was 90%; in that of `Cc1cc(-n2cnc(C(=O)NS(=O)(=O)c3ccccc3Cl)c2)cc(C(F)(F)F)c1` [I-290], 100%; in that of `O=C(NS(=O)(=O)c1c(Cl)cccc1Cl)c1cn(-c2cc(C(F)(F)F)cc(C(F)(F)F)c2)cn1` [I-292], 90%.
For `O=C(NS(=O)(=O)c1c(Cl)cccc1Cl)c1cn(-c2cc(Br)cc(Br)c2)cn1` [I-293] the value was 100%; for `O=C(NS(=O)(=O)c1ccccc1C(F)(F)F)c1cn(-c2cc(C(F)(F)F)cc(C(F)(F)F)c2)cn1` [I-294], 90%; for `O=C(NS(=O)(=O)c1ccccc1C(F)(F)F)c1cn(-c2cc(Cl)cc(C(F)(F)F)c2)cn1` [I-295], 90%.
With `O=C(NS(=O)(=O)c1ccccc1C(F)(F)F)c1cn(-c2cc(F)cc(C(F)(F)F)c2)cn1` [I-296], the pest or weed control at 20 ppm stood at 90%.
As for `O=C(NS(=O)(=O)c1c(Cl)cccc1Cl)c1cn(-c2cc(Br)cc(C(F)(F)F)c2)cn1` [I-297], the pest or weed control at 20 ppm is 90%.
In the case of `COc1ccc(Cl)c(S(=O)(=O)NC(=O)c2cn(-c3cc(C(F)(F)F)cc(C(F)(F)F)c3)cn2)c1` [I-298] it was 90%; in that of `Cc1cc(C)cc(-n2cnc(C(=O)NS(=O)(=O)c3c(Cl)cccc3Cl)c2)c1` [I-299], 90%; in that of `O=C(NS(=O)(=O)c1ccccc1)c1cn(-c2cc(F)cc(C(F)(F)F)c2)cn1` [I-301], 100%.
For `O=C(NS(=O)(=O)c1ccccc1Cl)c1cn(-c2cc(Cl)c(Cl)c(Cl)c2)cn1` [I-302] the value was 100%; for `COc1ccc(Cl)c(S(=O)(=O)NC(=O)c2cn(-c3cc(Cl)c(Cl)c(Cl)c3)cn2)c1` [I-303], 90%; for `O=C(NS(=O)(=O)c1ccccc1)c1cn(-c2cc(Cl)c(Cl)c(Cl)c2)cn1` [I-304], 90%.
For `O=C(NS(=O)(=O)c1c(Cl)cccc1Cl)c1cn(-c2cc(Cl)c(Cl)c(Cl)c2)cn1` [I-305], the pest or weed control at 20 ppm worked out at 90%.
For `O=C(NS(=O)(=O)c1ccc(Cl)cc1Cl)c1cn(-c2cc(Cl)c(Cl)c(Cl)c2)cn1` [I-306] the value was 90%.
Regarding `O=C(NS(=O)(=O)c1ccccc1Cl)c1cn(-c2cc(F)c(F)c(F)c2)cn1` [I-307], the pest or weed control at 20 ppm worked out at 100%.
As to `O=C(NS(=O)(=O)c1ccccc1Cl)c1cn(-c2cc(F)c(Br)c(F)c2)cn1` [I-308], the pest or weed control at 20 ppm amounted to 90%.
For `O=C(NS(=O)(=O)c1ccc(Cl)cc1Cl)c1cn(-c2cc(Cl)cc(C(F)(F)F)c2)cn1` [I-309] the value was 90%.
In the case of `O=C(NS(=O)(=O)c1ccccc1Cl)c1cn(-c2cc(F)cc(F)c2Cl)cn1` [I-310] it was 100%; in that of `O=C(NS(=O)(=O)c1ccccc1Cl)c1cn(-c2cc(Cl)c(Br)c(Cl)c2)cn1` [I-311], 90%; in that of `O=C(NS(=O)(=O)c1ccccc1)c1cn(-c2cc(Cl)c(Br)c(Cl)c2)cn1` [I-312], 90%.
For `O=C(NS(=O)(=O)c1c(Cl)cccc1Cl)c1cn(-c2cc(Cl)c(Br)c(Cl)c2)cn1` [I-313], the pest or weed control at 20 ppm came to 90%.
As for `Cc1nc(C(=O)NS(=O)(=O)c2ccccc2)cn1-c1cc(Cl)cc(Cl)c1` [I-315], the pest or weed control at 20 ppm was found to be 100%.
As for `COc1ccc(Cl)c(S(=O)(=O)NC(=O)c2cn(-c3cc(Cl)cc(Cl)c3)c(C)n2)c1` [I-318], the pest or weed control at 20 ppm came out at 100%.
For `CCOc1ccc(Cl)c(S(=O)(=O)NC(=O)c2cn(-c3cc(Cl)cc(Cl)c3)c(C)n2)c1` [I-319] the value was 100%; for `COc1ccc(Cl)c(S(=O)(=O)NC(=O)c2cn(-c3cc(F)cc(F)c3)c(C)n2)c1` [I-320], 100%.
On to `COc1ccc(Cl)c(S(=O)(=O)NC(=O)c2cn(-c3cc(F)cc(Cl)c3)c(C)n2)c1` [I-321], for which the pest or weed control at 20 ppm was 90%.
As to `Cc1nc(C(=O)NS(=O)(=O)c2c(Cl)cccc2Cl)cn1-c1cc(F)cc(Cl)c1` [I-322], the pest or weed control at 20 ppm is 100%.
In the case of `Cc1nc(C(=O)NS(=O)(=O)c2c(Cl)cccc2Cl)cn1-c1cc(F)cc(F)c1` [I-323] it was 100%.
For `CCOc1ccc(Cl)c(S(=O)(=O)NC(=O)c2cn(-c3cc(Cl)cc(C(F)(F)F)c3)c(C)n2)c1` [I-324] the value was 100%; for `Cc1nc(C(=O)NS(=O)(=O)c2c(Cl)cccc2Cl)cn1-c1cc(Cl)cc(C(F)(F)F)c1` [I-325], 90%; for `Cc1nc(C(=O)NS(=O)(=O)c2ccccc2Cl)cn1-c1cc(Cl)cc(C(F)(F)F)c1` [I-326], 100%.
On to `Cc1nc(C(=O)NS(=O)(=O)c2ccccc2Cl)cn1-c1cc(F)cc(Cl)c1` [I-327], for which the pest or weed control at 20 ppm turned out to be 100%.
For `Cc1nc(C(=O)NS(=O)(=O)c2cc(Cl)ccc2Cl)cn1-c1cc(Cl)cc(Cl)c1` [I-328] the value was 90%.
